In patent US9023789B2, “Amylin analogs and pharmaceutical compositions thereof” (Novo Nordisk A/S, priority 2012, dated 2015):
Numbered stars: 1 amine (or outer) side, 2 acyl side, 3 side chain; on linkers, the order of the positions; unused ones are H or OH. Bridge positions count the residues as written; N and C are the ends. Side chains are listed from the residue outwards. Peptide text beside a SMILES is read from it. * marks the point of attachment. C20 diacid = O=C(O)CCCCCCCCCCCCCCCCCCC(=O)*; γGlu = O=C(O)[C@H](CCC(=O)[*:2])N[*:1]; AEEA = NCCOCCOCC(=O)O

Tests used:
[1] = ASSAY (III) ThT fibrillation assay for physical stability; format: physicochemical
Procedure, shortened: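 Formulations with 1 μM ThT, pH adjusted as required, incubated at 37 °C with 960 rpm orbital shaking; fluorescence (ex 444/em 485 nm) read every 20 min. Fibrillation reported as mean ThT fluorescence ± SD of 4–8 replicates at time points; polypeptide concentration measured by reverse-phase HPLC before and after, post-centrifugation.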

[2] = molecular target: T1, human amylin receptor (membranes from Amylin 3(a)/CRE-luc cells) (Homo sapiens, UniProt O60896+P30988); assay: ASSAY (V) binding to the human amylin receptor (SPA, 125I-rat amylin); details: for IC50: Table 4, read-out: hAmylin-R bind IC50;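 on all read-outs here: competition binding of cell membranes (35 ng/µL) mixed with SPA beads in 384-well plates at 40 µL total volume, read by scintillation counting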
T1 construct: expressed in transfected cells
T1 sequence (P30988 25-474): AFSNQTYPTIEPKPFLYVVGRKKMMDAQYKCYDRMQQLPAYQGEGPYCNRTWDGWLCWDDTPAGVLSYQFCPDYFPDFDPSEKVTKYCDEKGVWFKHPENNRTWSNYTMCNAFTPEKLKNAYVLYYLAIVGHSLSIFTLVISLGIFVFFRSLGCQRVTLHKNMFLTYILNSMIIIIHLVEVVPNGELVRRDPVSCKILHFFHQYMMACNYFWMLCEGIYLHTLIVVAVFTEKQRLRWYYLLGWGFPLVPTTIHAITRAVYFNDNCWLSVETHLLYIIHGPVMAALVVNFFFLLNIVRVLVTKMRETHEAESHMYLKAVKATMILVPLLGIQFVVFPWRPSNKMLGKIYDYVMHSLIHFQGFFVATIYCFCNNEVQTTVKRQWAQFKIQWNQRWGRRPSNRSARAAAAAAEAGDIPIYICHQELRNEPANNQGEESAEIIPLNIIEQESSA
T1 sequence (O60896 24-148 partner): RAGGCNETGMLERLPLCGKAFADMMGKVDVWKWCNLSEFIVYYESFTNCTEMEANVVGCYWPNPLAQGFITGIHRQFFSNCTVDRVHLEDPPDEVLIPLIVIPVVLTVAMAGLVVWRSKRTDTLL

rat calcitonin receptor = molecular target: T2, rat calcitonin receptor (Rattus norvegicus, UniProt P32214); assay: ASSAY (VIII) binding to the rat calcitonin receptor; details: Table 7, read-out: rCTR bind IC50
T2 construct: expressed in transfected cells; host or cells: BHK tk'ts 13 (transient, FuGENE 6), membranes
T2 sequence (P32214 25-479 isoform P32214-2 limits assumed): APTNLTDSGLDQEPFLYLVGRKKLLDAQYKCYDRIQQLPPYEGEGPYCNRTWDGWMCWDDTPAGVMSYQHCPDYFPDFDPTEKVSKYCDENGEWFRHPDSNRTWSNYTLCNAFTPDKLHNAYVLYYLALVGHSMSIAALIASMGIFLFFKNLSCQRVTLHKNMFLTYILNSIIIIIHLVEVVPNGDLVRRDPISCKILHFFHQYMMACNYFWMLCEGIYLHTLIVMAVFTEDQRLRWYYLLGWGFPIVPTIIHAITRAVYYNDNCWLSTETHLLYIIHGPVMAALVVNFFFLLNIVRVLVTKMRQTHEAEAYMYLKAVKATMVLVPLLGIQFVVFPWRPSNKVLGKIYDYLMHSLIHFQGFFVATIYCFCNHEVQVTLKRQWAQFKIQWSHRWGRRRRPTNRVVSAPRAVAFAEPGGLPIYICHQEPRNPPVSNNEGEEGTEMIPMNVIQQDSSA
Procedure, shortened: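 Membranes were prepared from BHK tk′ts 13 cells transiently transfected with rat calcitonin receptor. Cells were grown in DMEM with 10% FBS and harvested approximately 48 hours after transfection.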

[3] = Table 5, selectivity, hCTR bind IC50 / hAmylin-R bind IC50
[4] = Table 5a, selectivity, hCTR bind IC50 / hAmylin-R bind IC50
[5] = Table 5b, selectivity, hCTR bind IC50 / hAmylin-R bind IC50
[6] = Table 5c, selectivity, hCTR bind IC50 / hAmylin-R bind IC50
[7] = Table 7, human binding selectivity, included for comparison
[8] = Table 7a (preferred compounds), human binding selectivity, included for comparison
[9] = ratio of human calcitonin receptor binding IC50 to human amylin receptor binding IC50

Row | ThT pH 4.0 lag time (h) [1] | IC50 [2] | Ratio hCT/hAmylin binding [2, 3] | Ratio hCT/hAmylin binding [2, 4] | Ratio hCT/hAmylin binding [2, 5] | Ratio hCT/hAmylin binding [2, 6] | Ratio hCT/hAmylin binding [2, 7] | Ratio hCT/hAmylin binding [2, 8] | Ratio hCT/hAmylin binding [2, 9] | IC50 (rat calcitonin receptor) | SMILES
1 | 2 h | 0.038 nM | 36.0 | 36.0 | 36.0 | 36.0 | 36.0 | 36.0 | 36.0 | 5.63 nM | CC[C@H](C)[C@H](NC(=O)[C@H](C)NC(=O)CNC(=O)[C@H](Cc1ccccc1)NC(=O)[C@H](CC(N)=O)NC(=O)[C@@H]1CCCN1C(=O)[C@H](CO)NC(=O)[C@H](CO)NC(=O)[C@H](Cc1c[nH]cn1)NC(=O)[C@H](CCCNC(=N)N)NC(=O)[C@H](CC(C)C)NC(=O)[C@H](Cc1ccccc1)NC(=O)[C@H](CC(N)=O)NC(=O)[C@H](C)NC(=O)[C@H](CC(C)C)NC(=O)[C@H](CCCNC(=N)N)NC(=O)[C@H](CCC(N)=O)NC(=O)[C@@H](NC(=O)[C@H](C)NC(=O)[C@@H]1CSSC[C@H](NC(=O)[C@@H](N)CCCCNC(=O)COCCOCCNC(=O)CC[C@H](NC(=O)CCCCCCCCCCCCCCCCCCC(=O)O)C(=O)O)C(=O)N[C@@H](CC(N)=O)C(=O)N[C@@H]([C@@H](C)O)C(=O)N[C@@H](C)C(=O)N[C@@H]([C@@H](C)O)C(=O)N1)[C@@H](C)O)C(=O)N1CCC[C@H]1C(=O)N[C@@H](CO)C(=O)N[C@@H](CO)C(=O)N[C@H](C(=O)N[C@@H](CC(N)=O)C(=O)N[C@H](C(=O)NCC(=O)N1CCC[C@H]1C(=O)N[C@@H](CC(N)=O)C(=O)N[C@H](C(=O)N[C@@H](Cc1ccc(O)cc1)C(N)=O)[C@@H](C)O)C(C)C)[C@@H](C)O [Example 50]
2 | 18 h | – | 103.5 | 103.5 | 103.5 | 103.5 | 103.5 | 103.5 | 103.5 | 10.9 nM | CC[C@H](C)[C@H](NC(=O)[C@H](C)NC(=O)CNC(=O)[C@H](Cc1ccccc1)NC(=O)[C@H](CC(N)=O)NC(=O)[C@@H]1CCCN1C(=O)[C@H](CO)NC(=O)[C@H](CO)NC(=O)[C@H](Cc1c[nH]cn1)NC(=O)[C@H](CCCNC(=N)N)NC(=O)[C@H](CC(C)C)NC(=O)[C@H](Cc1ccccc1)NC(=O)[C@H](CC(N)=O)NC(=O)[C@H](C)NC(=O)[C@H](CC(C)C)NC(=O)[C@H](CCCNC(=N)N)NC(=O)[C@H](CCC(N)=O)NC(=O)[C@@H](NC(=O)[C@H](C)NC(=O)[C@@H]1CSSC[C@H](NC(=O)[C@@H](N)CCCCNC(=O)COCCOCCNC(=O)CC[C@H](NC(=O)CCCCCCCCCCCCCCCCCCC(=O)O)C(=O)O)C(=O)N[C@@H](CC(N)=O)C(=O)N[C@@H]([C@@H](C)O)C(=O)N[C@@H](C)C(=O)N[C@@H]([C@@H](C)O)C(=O)N1)[C@@H](C)O)C(=O)N1CCC[C@H]1C(=O)N1CCC[C@H]1C(=O)N[C@@H](CO)C(=O)N[C@H](C(=O)N1CCC[C@H]1C(=O)N[C@H](C(=O)NCC(=O)N[C@@H](CO)C(=O)N[C@@H](CC(N)=O)C(=O)N[C@H](C(=O)N[C@@H](Cc1ccc(O)cc1)C(N)=O)[C@@H](C)O)C(C)C)[C@@H](C)O [Example 53] (H-K([AEEA-γGlu-C20 diacid])CNTATCATQRLANFLRHSSPNFGAIPPSTPVGSNTY-NH2; disulfide 2-7; N-terminus assumed)
3 | 24 h | 0.042 nM | 51.8 | 51.8 | 51.8 | 51.8 | 51.8 | 51.8 | 51.8 | 6.25 nM | CC[C@H](C)[C@H](NC(=O)[C@H](C)NC(=O)CNC(=O)[C@H](Cc1ccccc1)NC(=O)[C@H](CC(N)=O)NC(=O)[C@@H]1CCCN1C(=O)[C@H](CO)NC(=O)[C@H](CO)NC(=O)[C@H](Cc1c[nH]cn1)NC(=O)[C@H](CCCNC(=N)N)NC(=O)[C@H](CC(C)C)NC(=O)[C@H](Cc1ccccc1)NC(=O)[C@H](CC(N)=O)NC(=O)[C@H](C)NC(=O)[C@H](CC(C)C)NC(=O)[C@H](CCCNC(=N)N)NC(=O)[C@H](CCC(N)=O)NC(=O)[C@@H](NC(=O)[C@H](C)NC(=O)[C@@H]1CSSC[C@H](NC(=O)[C@@H](N)CCCCNC(=O)COCCOCCNC(=O)CC[C@H](NC(=O)CCCCCCCCCCCCCCCCCCC(=O)O)C(=O)O)C(=O)N[C@@H](CC(N)=O)C(=O)N[C@@H]([C@@H](C)O)C(=O)N[C@@H](C)C(=O)N[C@@H]([C@@H](C)O)C(=O)N1)[C@@H](C)O)C(=O)N1CCC[C@H]1C(=O)N1CCC[C@H]1C(=O)N[C@@H](CO)C(=O)N[C@H](C(=O)N[C@@H](CC(N)=O)C(=O)N[C@H](C(=O)NCC(=O)N1CCC[C@H]1C(=O)N[C@@H](CC(N)=O)C(=O)N[C@H](C(=O)N[C@@H](Cc1ccc(O)cc1)C(N)=O)[C@@H](C)O)C(C)C)[C@@H](C)O [Example 55] (H-K([AEEA-γGlu-C20 diacid])CNTATCATQRLANFLRHSSPNFGAIPPSTNVGPNTY-NH2; disulfide 2-7; N-terminus assumed)

Row | SMILES | ThT pH 4.0 lag time (h) [1] | IC50 [2] | Ratio hCT/hAmylin binding [2, 3] | Ratio hCT/hAmylin binding [2, 4] | Ratio hCT/hAmylin binding [2, 5] | Ratio hCT/hAmylin binding [2, 6] | Ratio hCT/hAmylin binding [2, 7] | Ratio hCT/hAmylin binding [2, 8] | Ratio hCT/hAmylin binding [2, 9] | IC50 (rat calcitonin receptor)
4 | CC[C@H](C)[C@H](NC(=O)[C@H](C)NC(=O)CNC(=O)[C@H](Cc1ccccc1)NC(=O)[C@H](CC(N)=O)NC(=O)[C@@H]1CCCN1C(=O)[C@H](CO)NC(=O)[C@H](CO)NC(=O)[C@H](Cc1c[nH]cn1)NC(=O)[C@H](CCCNC(=N)N)NC(=O)[C@H](CC(C)C)NC(=O)[C@H](Cc1ccccc1)NC(=O)[C@H](CC(N)=O)NC(=O)[C@H](C)NC(=O)[C@H](CC(C)C)NC(=O)[C@H](CCCNC(=N)N)NC(=O)[C@H](CCC(N)=O)NC(=O)[C@@H](NC(=O)[C@H](C)NC(=O)[C@@H]1CSSC[C@H](NC(=O)[C@@H](N)CCCCNC(=O)COCCOCCNC(=O)CC[C@H](NC(=O)CCCCCCCCCCCCCCCCCCC(=O)O)C(=O)O)C(=O)N[C@@H](CC(N)=O)C(=O)N[C@@H]([C@@H](C)O)C(=O)N[C@@H](C)C(=O)N[C@@H]([C@@H](C)O)C(=O)N1)[C@@H](C)O)C(=O)N1CCC[C@H]1C(=O)N[C@@H](CO)C(=O)N1CCC[C@H]1C(=O)N[C@H](C(=O)N1CCC[C@H]1C(=O)N[C@H](C(=O)NCC(=O)N[C@@H](CO)C(=O)N[C@@H](CC(N)=O)C(=O)N[C@H](C(=O)N[C@@H](Cc1ccc(O)cc1)C(N)=O)[C@@H](C)O)C(C)C)[C@@H](C)O [Example 54] (H-K([AEEA-γGlu-C20 diacid])CNTATCATQRLANFLRHSSPNFGAIPSPTPVGSNTY-NH2; disulfide 2-7; N-terminus assumed) | 15 h | 0.03 nM | 146.1 | 146.1 | 146.1 | 146.1 | 146.1 | 146.1 | 146.1 | 8.79 nM
